In patent US12012390B2, “Flavone compounds for the treatment and prophylaxis of hepatitis B virus disease” (priority 2018, dated 2024):
Like-named read-outs stand apart in the source and are kept apart here.

Experiments:
[1] = system: HBeAg level (surrogate marker for cccDNA) in HepDES19 cells; assay: Engineered HepDES19 primary screen assay (HBeAg as surrogate marker for cccDNA); type: cell-based, HBV
Text: The assay was employed to screen for novel cccDNA inhibitors. HepDES19 is a cccDNA-producing cell line. In this cell line, HBeAg in the cell culture supernatant as surrogate marker, as HBeAg production depends on cccDNA level and activity. HepDES19 is an engineered cell line which contains a 1.1 unit length HBV genome, and pgRNA transcription from the transgene is controlled by Tetracycline (Tet). In the absence of Tet, pgRNA transcription will be induced, but HBV e antigen (HBeAg) could not be produced from this pgRNA due to very short leader sequence before the HBeAg start codon and the start codon is disrupted. Only after cccDNA is formed, the missing leader sequence and start codon mutation would be restored from the 3′-terminal redundancy of pgRNA, and then HBeAg could be synthesized. Therefore, HBeAg could be used as a surrogate marker for cccDNA (Zhou, T. et al., Antiviral Res. (2006), 72(2), 116-124; Guo, H. et al., J. Virol. (2007), 81(22), 12472-12484).
HepDES19 cells were seeded at 2×10^6 cells per T150 flask and cultured with the culture medium (Dulbecco's Modified Eagle Medium: Nutrient Mixture F-12 [DMEM-F12, Gibco Cat. 11320-82], 10% Fetal Bovine Serum [FBS, Clontech Cat. 631101], 0.1 mM Non-Essential Amino Acids Solution [NEAA, Gibco Cat. 11140-050], 50 μg/mL Penicillin-Streptomycin [PS, Invitrogen Cat. 15140-163], 500 μg/mL Geneticin [G418, Invitrogen Cat. 10131-027]) containing 3 μg/mL Tet (Sigma, Cat. 87128) for 5 days. Cells were then seeded at 4×10^6 cells per T150 in the same culture medium as described above in the absence of Tet for 8 days. Cells were then harvested and frozen at density of 2×10^6 cells per mL. For compound testing, the frozen cells were thawed and seeded into 96-well plates at a density of 6×10^4 cells per well. At 24 hrs after seeding, half log serial dilutions of compounds made with Dimethyl sulfoxide (DMSO, Sigma, Cat. D2650) were further diluted with the same culture medium as described above before they were added to the cells to reach desired final compound concentrations and 1% DMSO concentration. Plates were then incubated at 37° C. for another 5 days before measurement of HBeAg level and cell viability. Intracellular HBeAg level were measured with enzyme-linked immunosorbent assay (ELISA) kit (Shanghai Kehua Diagnostic Medical Products Co., Ltd). Cell viability was assessed using Cell Counting Kit-8 (Donjindo, Cat. CK04-20). IC50 values were derived from the dose-response curve using 4 parameter logistic curve fit method.
The compounds of the present invention were tested for their capacity to inhibit extracellular HBeAg level as described herein.

[2] = system: HBV in primary human hepatocytes (PHH); assay: Cryopreserved primary human hepatocytes (PHH) HBV infection assay; type: cell-based; details: HBV-infected cryopreserved PHH, 9 days post-compound treatment, extracellular HBsAg by CLIA, read-out: HBsAg IC50
Protocol: This assay is used to confirm the anti-HBV effect of the compounds in HBV PHH infection assay. Cryopreserved PHH (BioreclamationIVT, Lot YJM) was thawed at 37° C. and gently transferred into pre-warmed InVitroGRO HT medium (BioreclamationIVT, Cat. S03317). The mixture was centrifuged at 70 relative centrifugal force (RCF) for 3 minutes at RT, and the supernatant was discarded. Pre-warmed InVitroGRO CP medium (BioreclamationIVT, Cat #S03316) was added to the cell pellet to gently re-suspend cells. The cells were seeded at the density of 5.8×10^4 cells per well to collagen I coated 96-well plate (Gibco, Cat. A1142803) with the InVitroGRO CP medium. All plates were incubated at 37° C. with 5% CO2 and 85% humidity.
At 20 hours after plating, the medium was changed to PHH culture medium (Dulbecco's Modified Eagle Medium (DMEM)/F12 (1:1) (Gibco, Cat. 11320-033), 10% fetal bovine serum (Gibco Cat. 10099141), 100 U/mL penicillin, 100 μg/mL streptomycin (Gibco, Cat. 151401-122), 5 ng/mL human epidermal growth factor (Invitrogen Cat. PHG0311L), 20 ng/mL dexamethasone (Sigma, Cat. D4902) and 250 ng/mL human recombinant insulin (Gibco, Cat. 12585-014)). And the cells were incubated at 37° C. with 5% CO2 and 85% humidity for 4 hours. The medium was then changed to pre-warmed PHH culture medium containing 4% polyethylene glycol (PEG) MW8000 (Sigma, Cat. P1458-50ML) and 1% DMSO (Sigma, Cat. D2650). 5.8×10^6 genomic equivalents of HBV were added into the medium.
At 24 hours post-infection, the cells were gently washed with PBS and refreshed with PHH culture medium supplemented with 1% DMSO, and 0.25 mg/mL Matrix gel (Corning, Cat. 356237) at 200 μL per well. All plates were immediately placed in at 37° C. CO2 incubator.
24 hours later, serial dilutions of compounds made with DMSO were further diluted with the same culture medium (PHH culture medium supplemented with 1% DMSO and 0.25 mg/mL Matrix gel as described above) before they were added to the cells to reach desired final compound concentrations and 1% DMSO concentration. The medium containing the compounds were refreshed every three days.
At 9 days post-compound treatment, extracellular HBsAg level were measured with Chemiluminescence Immuno Assay (CLIA) kit (Autobio, HBsAg Quantitative CLIA). Extracellular HBV DNA was extracted by MagNA Pure 96 system (Roche) and then determined by quantitative PCR with the following primers and probe: […]
HBsAg IC50 and HBV DNA IC50 values were derived from the dose-response curve using 4 parameter logistic curve fit method. The compounds of formula (I) have HBsAg IC50<20 μM, particularly <1 μM; and HBV DNA IC50<50 μM. Test results of the compounds of this invention as well as the reference compounds in Cryopreserved PHH assay are given in Table 2 and Table 3.

[3] = Hepatitis B virus, HepDES19, 120 h, read-out: IC50 (HBeAg) in HepDES19 primary screen assay, HepDES19 cells, 5 days incubation with compound, HBeAg by ELISA
[4] = Hepatitis B virus, Hepatocyte, 216 h
[5] = read-out: IC50 (HBeAg) in HepDES19 primary screen assay, HepDES19 cells, 5 days incubation with compound, HBeAg by ELISA

For `O=c1cc(-c2ccc(OCCO[C@H]3C[C@@H](C(=O)O)C3)cc2)oc2c(Cl)ccc(Cl)c12` [Example 29, Cis-3-[2-[4-(5,8-dichloro-4-oxo-chromen-2-yl)phenoxy]ethoxy]cyclobutanecarboxylic acid], the IC50 [1, 3] was 0.21 µM and the IC50 [2, 4] was 0.9 µM.

`CCOc1cc(OCCOC2CC(C(=O)O)C2)ccc1-c1cc(=O)c2cccc(Cl)c2o1` (stereo not drawn) [Example 51, 3-[2-[4-(8-chloro-4-oxo-chromen-2-yl)-3-ethoxy-phenoxy]ethoxy]cyclobutanecarboxylic acid] was tested, and the IC50 [1, 3] was 0.86 µM and the IC50 [2, 4] was 0.94 µM.

With `O=C(O)[C@H]1C[C@H]1OCCOc1ccc(-c2cc(=O)c3cccc(Cl)c3o2)cc1` (single isomer, unassigned) [Example 5-B, 2-[2-[4-(8-chloro-4-oxo-chromen-2-yl)phenoxy]ethoxy]cyclopropanecarboxylic acid] the IC50 [1, 5] was 11.2 µM and the IC50 [2, 4] was 1.78 µM.

Compound `O=c1cc(-c2ccc(OCCO[C@H]3C[C@@H](C(=O)O)C3)c(Cl)c2)oc2c(Cl)cccc12` [Example 43, Cis-3-[2-[2-chloro-4-(8-chloro-4-oxo-chromen-2-yl)phenoxy]ethoxy]cyclobutanecarboxylic acid] has an IC50 [1, 3] of 0.25 µM and an IC50 [2, 4] of 0.22 µM.

`COc1ccc2c(=O)c(-c3ccc(C(=O)O)cc3)coc2c1` [Example F-3, 4-(7-methoxy-4-oxo-chromen-3-yl)benzoic acid, reference compound] was tested, and the IC50 [1, 3] was > 50 µM and the IC50 [2, 4] was > 100 µM.

With `O=C(O)C1CCC(OCCOc2ccc(-c3cc(=O)c4cccc(Cl)c4o3)cc2)C1` (stereo not drawn) [Example 6, 3-[2-[4-(8-chloro-4-oxo-chromen-2-yl)phenoxy]ethoxy]cyclopentanecarboxylic acid] the IC50 [1, 3] was 1.95 µM and the IC50 [2, 4] was 0.86 µM.

`O=C(O)C1CC(OCCOc2ccc(-c3cc(=O)c4cc(C5CC5)cc(Cl)c4o3)cc2)C1` (stereo not drawn) [Example 67, 3-[2-[4-(8-chloro-6-cyclopropyl-4-oxo-chromen-2-yl)phenoxy]ethoxy]cyclobutanecarboxylic acid] showed an IC50 [1, 3] of 14.1 µM and an IC50 [2, 4] of 2.77 µM.

`O=C(O)c1cccc(OCC(O)COc2ccc(-c3cc(=O)c4cccc(Cl)c4o3)cc2)c1` (stereo not drawn) [Example 14, 3-[3-[4-(8-chloro-4-oxo-chromen-2-yl)phenoxy]-2-hydroxy-propoxy]benzoic acid] showed an IC50 [1, 3] of 20.4 µM and an IC50 [2, 4] of 19.2 µM.

Compound `O=C(O)COC1CC(COc2ccc(-c3cc(=O)c4cccc(Cl)c4o3)cc2)C1` (stereo not drawn) [Example 8, 2-[3-[[4-(8-chloro-4-oxo-chromen-2-yl)phenoxy]methyl]cyclobutoxy]acetic acid] has an IC50 [1, 3] of 1.34 µM and an IC50 [2, 4] of 0.12 µM.

`O=c1cc(-c2cnc(OCCO[C@H]3C[C@@H](C(=O)O)C3)cn2)oc2c(Cl)cccc12` [Example 39, Cis-3-[2-[5-(8-chloro-4-oxo-chromen-2-yl)pyrazin-2-yl]oxyethoxy]cyclobutanecarboxylic acid] gave an IC50 [1, 3] of 9.01 µM and an IC50 [2, 4] of 5.74 µM.

With `COc1ccc(-c2cc(=O)c3ccccc3o2)cc1` [Example F-2, 4′-methoxyflavone, reference compound] the IC50 [1, 3] was 16.3 µM and the IC50 [2, 4] was 46.5 µM.

`Cc1cc(-c2cc(=O)c3ccc(C(F)(F)F)c(Cl)c3o2)ccc1OCCOC1CC(C(=O)O)C1` (stereo not drawn) [Example 72, 3-[2-[4-[8-chloro-4-oxo-7-(trifluoromethyl)chromen-2-yl]-2-methyl-phenoxy]ethoxy]cyclobutanecarboxylic acid] gave an IC50 [1, 3] of 14.4 µM and an IC50 [2, 4] of 7.41 µM.

With `COc1ccc(-c2cc(=O)c3cc(OC)ccc3o2)cc1` [Example F-1, 6,4′-dimethoxyflavone, reference compound] the IC50 [1, 3] was > 50 µM and the IC50 [2, 4] was 61.7 µM.

For `CCOC(=O)C1CC1OCCOc1ccc(-c2cc(=O)c3cccc(Cl)c3o2)cc1` (single isomer, unassigned) [Example 4-B, ethyl 2-[2-[4-(8-chloro-4-oxo-chromen-2-yl)phenoxy]ethoxy]cyclopropanecarboxylate], the IC50 [1, 5] was 5.23 µM and the IC50 [2] was 0.51 µM.

Compound `O=c1cc(-c2ccc(OCCO[C@H]3C[C@@H](C(=O)O)C3)c(Cl)c2)oc2c(Cl)c(C(F)(F)F)ccc12` [Example 73, Cis-3-[2-[2-chloro-4-[8-chloro-4-oxo-7-(trifluoromethyl)chromen-2-yl]phenoxy]ethoxy]cyclobutanecarboxylic acid] has an IC50 [1, 3] of 15.4 µM and an IC50 [2, 4] of 6.77 µM.

Work on `O=C(O)C1CC(OCCOc2ccc(-c3cc(=O)c4ccc(Cl)c(Cl)c4o3)cc2)C1` (stereo not drawn) [Example 21, 3-[2-[4-(7,8-dichloro-4-oxo-chromen-2-yl)phenoxy]ethoxy]cyclobutanecarboxylic acid] yielded an IC50 [1, 3] of 0.29 µM and an IC50 [2, 4] of 5.1 µM.

Compound `O=c1cc(-c2ccc(OCCO[C@H]3C[C@@H](C(=O)O)C3)cc2)oc2c(Br)cccc12` [Example 33, Cis-3-[2-[4-(8-bromo-4-oxo-chromen-2-yl)phenoxy]ethoxy]cyclobutanecarboxylic acid] has an IC50 [1, 3] of 0.31 µM and an IC50 [2, 4] of 0.68 µM.

`O=C(O)C1CC(OCCOc2ccc(-c3oc4c(Cl)cc(F)cc4c(=O)c3OC(F)(F)F)cc2)C1` (stereo not drawn) [Example 63, 3-[2-[4-[8-chloro-6-fluoro-4-oxo-3-(trifluoromethoxy)chromen-2-yl]phenoxy]ethoxy]cyclobutanecarboxylic acid] gave an IC50 [1, 3] of 1.81 µM and an IC50 [2, 4] of 5.36 µM.

`O=c1cc(-c2ccc(OCCO[C@H]3C[C@@H](C(=O)O)C3)c(C3CC3)c2)oc2c(Cl)cccc12` [Example 45, Cis-3-[2-[4-(8-chloro-4-oxo-chromen-2-yl)-2-cyclopropyl-phenoxy]ethoxy]cyclobutanecarboxylic acid] gave an IC50 [1, 3] of 13.2 µM and an IC50 [2, 4] of 0.53 µM.

`N#Cc1ccc2c(=O)cc(-c3ccc(OCCOC4CC(C(=O)O)C4)cc3)oc2c1Cl` (single isomer, unassigned) [Example 23-B, 3-[2-[4-(8-chloro-7-cyano-4-oxo-chromen-2-yl)phenoxy]ethoxy]cyclobutanecarboxylic acid] gave an IC50 [2, 4] of 6.89 µM.
